5 compounds from ChEMBL document CHEMBL4334431, “Gramicidin S-inspired antimicrobial cyclodextrin to disrupt gram-negative and gram-positive bacterial membranes” (Medchemcomm, 2019) can be followed below.

Values after ≈ are worked out from the molar mass of the structure shown. Active and inactive are the calls of the source. The calls are words filed in the database; no cut-off is given here. Where only a bound is given, the exact number is not on record here.

For data set [1], the system named is Staphylococcus aureus. In words: Antibacterial activity against Staphylococcus aureus FDA 209P at sub-MIC treated over 2 serial passages by resistant development assay. It counts as functional.
For data set [2], the system named is Staphylococcus aureus. Put plainly: Antibacterial activity against Staphylococcus aureus FDA 209P at sub-MIC treated over 4 serial passages by resistant development assay. In kind it is functional.
For data set [3], the system named is Escherichia coli. Put plainly: Antimicrobial activity against […] at sub-MIC treated by resistant development assay. In kind it is functional. The following applies: K-12 substr. W3110.
Data set [4] deals with Pseudomonas aeruginosa. Put plainly: Antibacterial activity against Pseudomonas aeruginosa PAO1 assessed as bacterial growth inhibition after 20 hrs by liquid microdilution method. In kind it is functional. Conditions: PAO1, 20 h. On the technique in general: Broth dilution looks for growth in wells or tubes with falling amounts of substance.
For data set [5], the system named is Staphylococcus aureus. In words: Induction of membrane permeabilization in Staphylococcus aureus FDA 209P assessed as increase in potassium efflux. In kind it is functional, organism-based.
Data set [6] concerns Escherichia coli. In words: Antibacterial activity against Escherichia coli K12 W3110 assessed as bacterial growth inhibition after 20 hrs by liquid microdilution method. In kind it is functional. The following applies: K-12 substr. W3110, 20 h.
A further data set has as its system Bacillus subtilis. In words: Antibacterial activity against Bacillus subtilis 168 assessed as bacterial growth inhibition after 20 hrs by liquid microdilution method. It counts as functional. Conditions: Bacillus subtilis, 168, 20 h.
Data set [7] concerns Staphylococcus aureus. Put plainly: Antibacterial activity against Staphylococcus aureus FDA 209P assessed as bacterial growth inhibition after 20 hrs by liquid microdilution method. In kind it is functional.
Data set [8] relates to Escherichia coli. In words: Antimicrobial activity against ESBL-producing Escherichia coli assessed as bacterial growth inhibition after 20 hrs by liquid microdilution method. In kind it is functional.
Data set [9] is described as follows: Haemolytic activity in rabbit RBCs at 50 uM relative to control. In kind it is ADME, cell-based, Oryctolagus cuniculus, Erythrocyte. The following applies: rabbit red blood cells (erythrocytes), read-out: Activity.
The test system of data set [10] is Staphylococcus aureus. In words: Induction of membrane permeabilization in Staphylococcus aureus FDA 209P assessed as decrease in cell viability. It counts as functional, organism-based.
For data set [11], the system named is Escherichia coli. Put plainly: Antimicrobial activity against carbapenem-resistant Escherichia coli assessed as bacterial growth inhibition after 20 hrs by liquid microdilution method. In kind it is functional.
Data set [12] has as its system Pseudomonas aeruginosa. In words: Antibacterial activity against carbapenem-reistant Pseudomonas aeruginosa PAO1 assessed as bacterial growth inhibition after 20 hrs by liquid microdilution method. Conditions: PAO1, 20 h. It counts as functional.
Data set [13] concerns Escherichia coli. Put plainly: Induction of membrane permeabilization in Escherichia coli K12 W3110 assessed as increase in potassium efflux. It counts as functional, organism-based.
Data set [14] is described as follows: Partition coefficient, log P of compound. In kind it is physicochemical. The following applies: octanol/water.
Data set [15] relates to Escherichia coli. Put plainly: Induction of membrane permeabilization in Escherichia coli K12 W3110 assessed as decrease in cell viability. It counts as functional, organism-based.
The next data set has as its system Salmonella typhimurium. Put plainly: Antibacterial activity against Salmonella typhimurium LT2 assessed as bacterial growth inhibition after 20 hrs by liquid microdilution method. Conditions: Salmonella enterica, LT2, 20 h. It counts as functional, Salmonella enterica subsp. enterica serovar Typhimurium.
Another data set relates to Erythrocyte. Put plainly: Haemolytic activity in rabbit RBCs at 10 times MIC. In kind it is ADME, cell-based, Oryctolagus cuniculus.
For data set [16], the system named is Staphylococcus aureus. In words: Antibacterial activity against Staphylococcus aureus FDA 209P at sub-MIC treated over 11 serial passages by resistant development assay. In kind it is functional.
Data set [17] relates to Staphylococcus aureus. In words: Antibacterial activity against Staphylococcus aureus FDA 209P at sub-MIC by resistant development assay. It counts as functional.

In the case of `C[C@@H]1O[C@@H]1P(=O)(O)O` [FOSFOMYCIN], the MIC (usually the least concentration at which growth counts as inhibited) was 14 µM (≈ 1.93 µg/mL) against Staphylococcus aureus [1], greater than 927 µM with Staphylococcus aureus [2] and 58 to 927 µM (≈ 8.01 to 128 µg/mL) against Escherichia coli [3].
For `CCC(=O)O[C@@H]1[C@@H](OC(=O)CC)[C@H]2O[C@H]3[C@H](OC(=O)CC)[C@@H](OC(=O)CC)[C@@H](O[C@H]4[C@H](OC(=O)CC)[C@@H](OC(=O)CC)[C@@H](O[C@H]5[C@H](OC(=O)CC)[C@@H](OC(=O)CC)[C@@H](O[C@H]6[C@H](OC(=O)CC)[C@@H](OC(=O)CC)[C@@H](O[C@H]7[C@H](OC(=O)CC)[C@@H](OC(=O)CC)[C@@H](O[C@H]8[C@H](OC(=O)CC)[C@@H](OC(=O)CC)[C@@H](O[C@H]9[C@H](OC(=O)CC)[C@@H](OC(=O)CC)[C@@H](O[C@@H]1[C@@H](Cn1cc(CN)nn1)O2)O[C@@H]9Cn1cc(CN)nn1)O[C@@H]8Cn1cc(CN)nn1)O[C@@H]7Cn1cc(CN)nn1)O[C@@H]6Cn1cc(CN)nn1)O[C@@H]5Cn1cc(CN)nn1)O[C@@H]4Cn1cc(CN)nn1)O[C@@H]3Cn1cc(CN)nn1`, the MIC with Pseudomonas aeruginosa [4] came to 4 µM (≈ 11.3 µg/mL); in the data set on Escherichia coli [6], 4 µM (≈ 11.3 µg/mL); with Bacillus subtilis, 2 µM (≈ 5.67 µg/mL); in the data set with Staphylococcus aureus [7] it was 9 µM (≈ 25.5 µg/mL); in the data set on Escherichia coli [8], 4 µM (≈ 11.3 µg/mL); in the data set with Escherichia coli [11], 9 µM (≈ 25.5 µg/mL). For the same compound, the MIC in the data set with Pseudomonas aeruginosa [12] and with Salmonella typhimurium was 9 µM (≈ 25.5 µg/mL) throughout. In addition, the result in the data set with Staphylococcus aureus [5], in the data set with Staphylococcus aureus [10], in the data set on Escherichia coli [13] and in the data set on Escherichia coli [15] was Active. Further, in data set [9], the hemolysis at 50 µM was 17%. Besides, in data set [14], the logP (commonly the decadic logarithm of the partition coefficient of the neutral form, usually between octanol and water) is -0.89.
For `CCC(=O)O[C@@H]1[C@@H](OC(=O)CC)[C@H]2O[C@H]3[C@H](OC(=O)CC)[C@@H](OC(=O)CC)[C@@H](O[C@H]4[C@H](OC(=O)CC)[C@@H](OC(=O)CC)[C@@H](O[C@H]5[C@H](OC(=O)CC)[C@@H](OC(=O)CC)[C@@H](O[C@H]6[C@H](OC(=O)CC)[C@@H](OC(=O)CC)[C@@H](O[C@H]7[C@H](OC(=O)CC)[C@@H](OC(=O)CC)[C@@H](O[C@@H]1[C@@H](Cn1cc(CN)nn1)O2)O[C@@H]7Cn1cc(CN)nn1)O[C@@H]6Cn1cc(CN)nn1)O[C@@H]5Cn1cc(CN)nn1)O[C@@H]4Cn1cc(CN)nn1)O[C@@H]3Cn1cc(CN)nn1`, the MIC with Pseudomonas aeruginosa [4] was 3 µM (≈ 6.38 µg/mL); in the data set on Escherichia coli [6], 3 µM (≈ 6.38 µg/mL); against Staphylococcus aureus [16], 6 µM (≈ 12.8 µg/mL); against Escherichia coli [3], 3 to 6 µM (≈ 6.38 to 12.8 µg/mL); with Bacillus subtilis it was 3 µM (≈ 6.38 µg/mL); in the data set with Staphylococcus aureus [7], 6 µM (≈ 12.8 µg/mL). Moreover, the MIC in the data set on Escherichia coli [8] was determined as 5 µM (≈ 10.6 µg/mL); with Escherichia coli [11], 5 µM (≈ 10.6 µg/mL); in the data set with Pseudomonas aeruginosa [12] it was 5 µM (≈ 10.6 µg/mL); with Salmonella typhimurium, 6 µM (≈ 12.8 µg/mL). The Activity entry with Erythrocyte is recorded as “Non-Toxic”. In addition, in data set [9], the hemolysis at 50 µM stood at 3%. This compound displayed a logP in data set [14] of -0.89.
For the compound `CCC(=O)O[C@@H]1[C@@H](OC(=O)CC)[C@H]2O[C@H]3[C@H](OC(=O)CC)[C@@H](OC(=O)CC)[C@@H](O[C@H]4[C@H](OC(=O)CC)[C@@H](OC(=O)CC)[C@@H](O[C@H]5[C@@H](OC(=O)CC)[C@@H](OC(=O)CC)[C@H](O[C@H]6[C@H](OC(=O)CC)[C@@H](OC(=O)CC)[C@@H](O[C@H]7[C@H](OC(=O)CC)[C@@H](OC(=O)CC)[C@@H](O[C@H]8[C@H](OC(=O)CC)[C@@H](OC(=O)CC)[C@@H](O[C@@H]1[C@@H](Cn1cc(CN)nn1)O2)O[C@@H]8Cn1cc(CN)nn1)O[C@@H]7Cn1cc(CN)nn1)O[C@@H]6Cn1cc(CN)nn1)O[C@@H]5Cn1cc(CN)nn1)O[C@@H]4Cn1cc(CN)nn1)O[C@@H]3Cn1cc(CN)nn1`, the MIC in the data set with Pseudomonas aeruginosa [4] was determined as 2 µM (≈ 4.96 µg/mL); in the data set on Escherichia coli [6], 2 µM (≈ 4.96 µg/mL); in the data set with Bacillus subtilis it was 2 µM (≈ 4.96 µg/mL); in the data set on Staphylococcus aureus [7] it was 5 µM (≈ 12.4 µg/mL); with Escherichia coli [8], 6 µM (≈ 14.9 µg/mL); in the data set on Escherichia coli [11] it was 11 µM (≈ 27.3 µg/mL). Besides, the MIC stood at 6 µM (≈ 14.9 µg/mL) in the data set with Pseudomonas aeruginosa [12] and 5 µM (≈ 12.4 µg/mL) in the data set on Salmonella typhimurium. In addition, in [9], the hemolysis at 50 µM turned out to be 20%. The same compound came in with a logP in data set [14] of -0.89.
As to `CCn1cc(C(=O)O)c(=O)c2cc(F)c(N3CCNCC3)cc21` [NORFLOXACIN], the values for the MIC in the data set on Escherichia coli [3] and against Staphylococcus aureus [17] were 0.2 to 6 µM (≈ 0.0639 to 1.92 µg/mL) and 0.8 to 3 µM (≈ 0.255 to 0.958 µg/mL), respectively.
